Our source for the Ki values is patent EP0483928A1, “2-Saccharinylmethyl aryl carboxylates useful as proteolytic enzyme inhibitors and compositions and method of use” (STERLING WINTHROP INC., priority 1990, dated 1992).

In the experiment the target is T1, human leukocyte elastase (HLE) (Homo sapiens, UniProt P08246).
T1 sequence (P08246 30-267): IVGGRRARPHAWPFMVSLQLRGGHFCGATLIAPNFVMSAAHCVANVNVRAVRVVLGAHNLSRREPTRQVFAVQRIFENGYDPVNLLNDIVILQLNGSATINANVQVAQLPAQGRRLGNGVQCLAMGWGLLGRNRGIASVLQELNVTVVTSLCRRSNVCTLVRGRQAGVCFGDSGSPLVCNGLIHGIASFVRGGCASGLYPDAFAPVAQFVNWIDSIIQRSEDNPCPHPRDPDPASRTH
Nature of the experiment: Inhibition of human leukocyte elastase: rate of inactivation kon and inhibition constant Ki* (koff/kon). The experiment is classed as biochemical. As to conditions: Ki* = koff/kon, calculated from measured koff and kon; not a truly reversible Ki; read-out: K*i.
Method: Thus, instead of measuring a Ki, a Ki* is calculated which is defined as the ratio of the koff/kon, the rate of reactivation of the enzyme to the rate of inactivation of the enzyme. The values of koff and kon are measured and Ki* is then calculated.
The rate of inactivation, kon, of enzymatic activity was determined for the compounds tested by measuring the enzyme activity of an aliquot of the respective enzyme as a function of time after addition of the test compound. […] The rate of inactivation is then equal to [formula] where [I] is the concentration of the inhibiting compound.
The reactivation constant, koff, is similarly determined, and the inhibition constant, Ki*, is then calculated as Ki * = koff /kon [formula]
Regarding `CC(C)c1cc(-c2cccn2C)cc2c1C(=O)N(COC(=O)c1c(Cl)cccc1Cl)S2(=O)=O` [Example 5J, 4-isopropyl-6-[2-[1-methyl]pyrrolidinyl]saccharinylmethyl 2,6-dichlorobenzoate], the Ki is 0.2 nM.
For `CC(C)c1cc(OCC(O)CO)cc2c1C(=O)N(COC(=O)c1c(Cl)cccc1Cl)S2(=O)=O` (stereo not shown) [Example 6, 6-(2,3-dihydroxypropoxy)-4-isopropylsaccharinylmethyl 2,6-dichlorobenzoate] the value was 0.016 nM; for `CC(C)c1cc(OCC(=O)OC(C)(C)C)cc2c1C(=O)N(COC(=O)c1c(Cl)cccc1Cl)S2(=O)=O` [Example 7A, 6-(2-t-butoxy-2-oxoethoxy)-4-isopropyl-2-saccharinylmethyl 2,6-dichlorobenzoate], 0.08 nM; for `CC(C)c1cc(OCC(=O)OCc2ccccc2)cc2c1C(=O)N(COC(=O)c1c(Cl)cccc1Cl)S2(=O)=O` [Example 7B, 6-(2-benzyloxy-2-oxoethoxy)-4-isopropyl-2-saccharinylmethyl 2,6-dichlorobenzoate], 0.056 nM.
For `O=C(OCN1C(=O)C2=C(C3CCC2C3)S1(=O)=O)c1c(Cl)cccc1Cl` (stereo not shown) [Example 8, 2-(2,6-dichlorobenzoyloxymethyl)4,5,6,7-tetrahydro-4,7-methano-1,2-benzisothiazol-3(2H)-one 1,1-dioxide] the value was 0.6 nM; for `CC(C)C1CCCC2=C1C(=O)N(COC(=O)c1c(Cl)ccc(S(=O)(=O)N(C)CCN(C)C)c1Cl)S2(=O)=O` (stereo not shown) [Example 9E, 4-isopropyl-4,5,6,7-tetrahydro-2-saccharinylmethyl 2,6-dichloro-3-[[2-(N,N-dimethylamino)ethyl]-N-methylaminosulfonyl]benzoate hydrochoride], 2 nM; for `CN(C)c1cccc2c1C(=O)N(COC(=O)c1c(Cl)cccc1Cl)S2(=O)=O` [Example 11, 4-dimethylamino-2-saccharinylmethyl 2,6-dichlorobenzoate], 0.2 nM.
